Experimental data reported in patent US6436922B1, “5,11-dihydrobenzo[b,e][1,4]oxazepine derivatives and pharmaceutical compositions containing the same” (Ajinomoto Co., Inc., priority 1996, dated 2002).

Columns and labels:
WRS-induced defecation = test: Inhibition of acceleration of stool excretion in a wrap restraint stress (WRS) model; assay type: in vivo; conditions: rat, p.o. 30 minutes before stress, stool over 1 hour, Litchfield-Wilcoxon method
Procedure: In-vivo test [effect of inhibiting acceleration of stool excretion in a wrap restraint stress (WRS) model]:
The test was conducted by the method of William et al. [Gastroenterology, 94, 611 (1988)]. That is, each of Crj:CD male rats (from 6 to 7 weeks old) was slightly etherized, and the fore shoulder, the foreleg and the chest thereof were wrapped with a paper tape to apply stress thereto. The rat was allowed to stand under stress for 1 hour, and the amount of stool excreted during that time was measured. The test compound was orally administered to the rat 30 minutes before applying the stress thereto. The normal group was etherized, and then allowed to stand for 1 hour without applying stress thereto. Thereafter, the amount of stool excreted was measured. In this test, nicardipine and Compound A were used as comparative substances. The 50% inhibition dose (ID50) relative to the increase in the […] of stool owing to WRS was calculated by the Litchfield-Wilcoxon method, and the results are shown in Table 2-1. In addition, and inhibition of test compounds (lomg/kg, p.o.) expressed as a percentage of control were determined and the results were shown in Table 2—2.

tail artery pressure = test: Decrease in the blood pressure in rats (tail cuff method); assay type: in vivo; conditions: rat, dose causing 20 mmHg decrease in blood pressure 1 hour after administration
Procedure: Decrease in the blood pressure in rats:
This test was conducted by the tail cuff method. That is, each of Crj:CD male rats (from 8 to 9 weeks old) had been warmed to fully expand the tail artery. The tail artery pressure was then measured immediately before, and 1 hour after, the oral administration of the test compound using a non-invasive blood pressure measuring device. In this test, nicardipine and Compound A were used as comparative substances. With respect to the decrease in the blood pressure, a dose at which to cause the decrease in the blood pressure by 20 mmHg from the blood pressure immediately before the administration was calculated as ED20 from the regression line of the decrease (mmHg) in the blood pressure relative to the logarism of the dose of the test compound. As is clear from Tables 2-1 and 2—2, the compound of the present invention has a higher selectivity for the intestinal tract than Compound A, and it can be an excellent agent of improving an abnormal moving function of the digestive tract.

Acute toxicity test = conditions: ddy, mouse, in vivo, ip; male mice, i.p., mortality observed for 7 days; read-out: 50% lethal dose (LD50, mg/kg, i.p.)
Crj:CD male rats = test: Test for a toxicity in continuous administration for 1 week; assay type: in vivo; conditions: rat, 100 mg/kg p.o. once daily for 1 week
Procedure: Test for a toxicity in continuous administration for 1 week:
A suspension of 100 mg/kg of the compound in Example 2 or 12 in 0.5% methyl cellulose was orally administered to each of Crj:CD male rats (6 weeks old) continuously for 1 week at a rate of one administration per day to observe general conditions, to measure the body weight, to conduct biochemical inspection of the blood, to measure the weights of the internal organs and to conduct pathological inspection.

rat pupillary diameter = test: Anticholinergic activity by mydriasis of rats; assay type: in vivo; conditions: for rat pupillary diameter (mm) 1 hour / rat pupillary diameter (mm) 2 hours / rat pupillary diameter (mm) 6 hours: 300 mg/kg p.o.; for rat pupillary diameter (mm) 1 hour: after 1 hour; for rat pupillary diameter (mm) 2 hours: after 2 hours; for rat pupillary diameter (mm) 6 hours: after 6 hours; for rat pupillary diameter (mm) before: before administration of 300 mg/kg p.o.
Procedure: Anticholinergic activity by mydriasis of rats: […] The diameter of the pupil after 1, 2 or 6 hours was measured using a stereoscopic microscope of 5x magnification.

[1] = Decrease in the body temperature of rats; assay type: in vivo; conditions: rat, 100 mg/kg p.o.; for change in body temperature 1 hour: rectal temperature after 1 hour; for change in body temperature 2 hour: rectal temperature after 2 hours; for change in body temperature 5 hour: rectal temperature after 5 hours
Procedure: Decrease in the body temperature of rats:
A suspension of 100 mg/kg of a test compound in 0.5% methyl cellulose was orally administered to each of Crj:CD male rats (from 7 to 8 weeks old), and the body temperature (temperature of the rectum) after 1, 2 or 5 hours was measured using a thermistor thermometer, and the difference in the body temperature between the compound of the present invention and the comparative substance is shown in Table 4.

Cl.c1ccc2c(c1)COc1ccccc1N2C[C@@H]1CCCN1CCc1ccc2c(c1)OCO2
melting point: 158 to 162 °C

COC(=O)C1=C(C)NC(C)=C(C(=O)OCCN(C)Cc2ccccc2)C1c1cccc([N+](=O)[O-])c1 (centres unmarked) [nicardipine, reference compound]
Inhibitory effect on WRS-induced defecation (ID50, mg/kg, p.o.) (WRS-induced defecation): 6.8 mg/kg
Hypotensive effect (ED20, mg/kg, p.o.) (tail artery pressure): 4.0 mg/kg

Cl.c1ccc(CCN2CCC[C@@H]2CN2c3ccccc3COc3ccccc32)cc1
melting point: 179 to 182 °C

Cl.N#Cc1ccc(CCN2CCC[C@@H]2CN2c3ccccc3COc3ccccc32)cc1
melting point: 109 to 112 °C

COc1ccc(CCN2CCC[C@H]2CN2c3ccccc3COc3ccccc32)cc1.Cl [Example 12, (S)-(−)-5,11-dihydro-5-[1-(4-methoxyphenethyl)-2-pyrrolidinylmethyl]dibenzo[b,e][1,4]oxazepine hydrochloride]
LD50 at 7 days (Acute toxicity test): > 280 mg/kg
toxicity findings (general conditions, body weight, blood biochemistry, organ weights, pathology) (Crj:CD male rats): no remarkable change was observed

COc1ccc(CCN2CCC[C@H]2CN2c3ccccc3COc3ccccc32)cc1OC.Cl
melting point: 106 to 109 °C

COc1ccc(CCN2CCC[C@@H]2CN2c3ccccc3COc3ccccc32)cc1.Cl [Example 2, (R)-(+)-5,11-dihydro-5-[1-(4-methoxyphenethyl)-2-pyrrolidinylmethyl]-dibenzo[b,e][1,4]oxazepine hydrochloride]
Inhibitory effect on WRS-induced defecation (ID50, mg/kg, p.o.) (WRS-induced defecation): 3.1 mg/kg
rat pupillary diameter (mm) 1 hour (rat pupillary diameter): 0.90 mm
rat pupillary diameter (mm) 2 hours (rat pupillary diameter): 0.77 mm
rat pupillary diameter (mm) 6 hours (rat pupillary diameter): 0.97 mm
rat pupillary diameter (mm) before (rat pupillary diameter): 0.97 mm
LD50 at 7 days (Acute toxicity test): 175 mg/kg
toxicity findings (general conditions, body weight, blood biochemistry, organ weights, pathology) (Crj:CD male rats): no remarkable change was observed
change in body temperature 1 hour [1]: 0
change in body temperature 2 hour [1]: −0.1
change in body temperature 5 hour [1]: −0.2
Hypotensive effect (ED20, mg/kg, p.o.) (tail artery pressure): >1000 mg/kg

Cl.Fc1ccc(CCN2CCC[C@@H]2CN2c3ccccc3COc3ccccc32)cc1 [Example 4, (R)-(+)-5,11-dihydro-5-[1-(4-fluorophenethyl)-2-pyrrolidinylmethyl]dibenzo[b,e][1,4]oxazepine hydrochloride]
Inhibitory effect on WRS-induced defecation (ID50, mg/kg, p.o.) (WRS-induced defecation): 1.8 mg/kg
rat pupillary diameter (mm) 1 hour (rat pupillary diameter): 0.70 mm
rat pupillary diameter (mm) 2 hours (rat pupillary diameter): 0.57 mm
rat pupillary diameter (mm) 6 hours (rat pupillary diameter): 0.70 mm
rat pupillary diameter (mm) before (rat pupillary diameter): 0.80 mm
LD50 at 7 days (Acute toxicity test): > 200 mg/kg
change in body temperature 1 hour [1]: −0.3
change in body temperature 2 hour [1]: −0.2
change in body temperature 5 hour [1]: +0.1
Hypotensive effect (ED20, mg/kg, p.o.) (tail artery pressure): >1000 mg/kg

COc1ccc(CCN2CCC[C@@H]2CN2c3ccccc3COc3ccccc32)cc1OC.Cl
melting point: 106 to 109 °C

COc1ccc(CCN2CCC[C@H]2CN2c3ccccc3CSc3ccccc32)cc1.Cl [Compound A, reference compound]
Inhibitory effect on WRS-induced defecation (ID50, mg/kg, p.o.) (WRS-induced defecation): 34.8 mg/kg
rat pupillary diameter (mm) 1 hour (rat pupillary diameter): 2.18 mm
rat pupillary diameter (mm) 2 hours (rat pupillary diameter): 2.27 mm
rat pupillary diameter (mm) 6 hours (rat pupillary diameter): 2.62 mm
rat pupillary diameter (mm) before (rat pupillary diameter): 0.85 mm
LD50 at 7 days (Acute toxicity test): 162 mg/kg
change in body temperature 1 hour [1]: −0.5
change in body temperature 2 hour [1]: −0.6
change in body temperature 5 hour [1]: −0.5
Hypotensive effect (ED20, mg/kg, p.o.) (tail artery pressure): >100 mg/kg

COc1cccc(CCN2CCC[C@H]2CN2c3ccccc3COc3ccccc32)c1.Cl
melting point: 164 to 166 °C
